# Article PMC10149936, “Cofilin activation in pancreatic acinar cells plays a pivotal convergent role for mediating CCK-stimulated enzyme secretion and growth” (Frontiers in Physiology, 2023)
# Tested on: cofilin / PP1 association
# Assay: co-immunoprecipitation of cofilin with PP1 in pancreatic acini
# Type: cell-based, rat
# Conditions: CCK-8 100 nM, 3 min
# Method: For co-immunoprecipitation, 600 μg of protein was incubated with 15 μL of the anti-cofilin antibody (Santa Cruz Biotechnology, Inc. Dallas, TX) and 25 μL of protein A/G agarose beads (Thermo-Fisher Scientific. Waltham, MA) overnight at 4°C under agitation. Samples were washed three times with lysis buffer, re-suspended in 12.5 μL of Sample Buffer, Laemlii 2x concentrate and boiled for 5 min before western blotting.
# FIGURE 6 Effect of CCK-8 (100 nM) to alter co-immunoprecipitation of cofilin with total PP2A (A) or PP1 (B). Isolated pancreatic acini were incubated in the absence or presence of CCK-8 (100 nM) for 3 min and then lysed. Equal amounts of protein were co-immunoprecipitated with an anti-cofilin (Santa Cruz, SC-376476) and then subjected to Western blots using anti-PP2A and anti-PP1. Bands were visualized using chemiluminescence and quantified by densitometry. Top: Results of a representative blot of four independent experiments are shown. Bottom: Means ± S.E. of at least 4 independent experiments. Results are expressed as % of basal stimulation of the control group. N.S., No significant. […] Lysates were analyzed using cofilin (pS3), Total cofilin, PP2A (pY307), Total PP2A, PP1(pT320), Total PP1 and tubulin. […]
substance,measurement,value
COOH-terminal octapeptide of cholecystokinin [CCK-8],effect on PP1 co-immunoprecipitation with cofilin,had no effect
